Measurements published in ChEMBL document CHEMBL5120977, “Orexin Receptor Agonists as Possible Treatment for Narcolepsy and Idiopathic Hypersomnia” (ACS Med Chem Lett, 2022).

Biological target: T1, Orexin receptor type 2 (Homo sapiens, UniProt O43614)
T1 sequence (O43614 whole entry): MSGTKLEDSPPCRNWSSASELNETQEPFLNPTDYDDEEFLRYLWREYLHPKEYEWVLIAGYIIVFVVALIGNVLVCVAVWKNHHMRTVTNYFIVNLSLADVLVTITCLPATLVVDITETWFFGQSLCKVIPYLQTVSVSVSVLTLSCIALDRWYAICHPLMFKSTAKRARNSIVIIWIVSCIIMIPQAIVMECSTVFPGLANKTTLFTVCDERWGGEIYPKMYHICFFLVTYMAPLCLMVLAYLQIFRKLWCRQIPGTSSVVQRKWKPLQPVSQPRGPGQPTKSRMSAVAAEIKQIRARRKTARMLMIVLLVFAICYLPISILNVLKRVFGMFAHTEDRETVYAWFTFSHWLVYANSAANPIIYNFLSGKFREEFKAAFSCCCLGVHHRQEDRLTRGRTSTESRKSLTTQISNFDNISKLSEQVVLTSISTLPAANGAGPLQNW
Assay: Agonist activity at human OX2R expressed in CHO cells
Assay type: functional, cell-based

EC50: 0.9 nM
Compound: CCN(C(=O)N[C@@H](C1CCCC(F)(F)C1)C(F)(F)F)[C@H](C)c1cccc(-c2cn3ccnc3c(OC)n2)c1 (stereo partly specified)
